This note sets out measurements from patent publication US20060194815A1, “Methods and compositions for modulating serum cortisol levels” (priority 2003, published 2006).

The subject of test [1] is H295R human adrenal tumor cells. The test can be described thus: dbcAMP-induced cortisol synthesis in H295R cells (RIA). The test is classed as cell-based. As for the experimental part: (§1) Culture media were then changed and cells were stimulated with 1 mM dbcAMP and the treatment for 24 to 48 hours. […] The synthesis of 20-OH progesterone and progesterone in Y1 and MA-10 cell media respectively were measured by RIA (Brown et al., 1992). H295R human adrenal tumor cells were seeded in 48-well plates at 10^5 cells/well and incubated for 24 hours. […] At the end of the incubation time period, cells were treated with 1 mM dbcAMP for 48 hours. Cortisol levels in the media were determined by radioimmunoassay as previously described (Amri et al., 1996).

For a further test, the system named is HMG-CoA reductase. The test can be described thus: HMG-CoA reductase activity in treated Y1 cells. The test is classed as cell-based, mouse. To be noted: increasing concentrations. On the procedure:
Cells were washed twice with ice-cold PBS and incubated with ice-cold assay buffer (0.1M sucrose, 40 mM KH2PO4, 30 mM EDTA, 50 mM KCl, 5 mM DTT, 0.25% (v/v) of Brij 96, at pH 7.4) on ice for 20 minutes. After centrifugation for 3 minutes at 14000 g (4° C.) the supernatants were collected and used for HMG-CoA reductase activity assay. The total 150 l assay mixture contained 100-200 g protein and the NADPH-generating system (2.5 mM NADP, 20 mM glucose 6-phosphate and 20 U/ml glucose 6-phosphate dehydrogenase). The reaction was started by adding substrate (^14C-HMG-CoA, 0.1 Ci) and stopped after 45 minutes by adding 10-1 of HCl 6M. ^3H-mevalonolactone was also added to the samples as an extraction recovery marker. After an additional 30 minutes incubation time, to allow complete lactonization of the product, the mixture was centrifuged. The supernatant was applied to Bond-Elut NH2 column and eluted with 1 ml of toluene/acetone (3:1). The eluate was discarded and further 4 ml of toluene/acetone was applied to the column and collected in a scintillation vial for counting ^14C-mevalonate and 3H-mevalonolactone signals (Berkhout et al., 1990).

Test [2] has as its system MA-10 mouse Leydig tumor cells. The test can be described thus: dbcAMP-induced progesterone synthesis in MA-10 cells (RIA). The test is classed as cell-based. As for the experimental part: as §1
Test [3] deals with steroidogenesis acute regulatory protein (StAR). The test can be described thus: Immunoblot of StAR protein levels in Y1 cells. The test is classed as cell-based, mouse. The conditions noted are these: 1 μM procaine, 48 hour treatment, 3 hour dbcAMP. On the procedure:
At the end of the treatment protocol described above, Y1 cells at 90% confluency were washed 2 times with PBS, sonicated 15 seconds in extraction buffer and centrifuged at 18,500 g for 15 minutes at 4° C. Pellets were resuspended in ice-cold lysis buffer (1% Nonidet 40 in extraction buffer), sonicated briefly, and incubated on ice for 1 hour. After centrifugation (22,500 g×30 min, 4° C.), the supernatant was mixed in sample buffer 6× (0.27 M SDS, 0.6 M dithiothreitol, 0.18 M bromphenol blue in 7 ml of 0.5 M Tris-HCl, pH 6.8, and 3 ml glycerol) and boiled for 5 minutes. Proteins were subjected to SDS-PAGE (4-20% gradient SDS polyacrylamide gel) and electrophoretically transferred onto nitrocellulose membranes. The transblot sheets were blocked with 5% non fat dry milk in 25 mM Tris HCl, pH 7.5, 150 mM NaCl, and 0.1% Tween 20 overnight at 4° C. Membranes were then incubated with appropriately diluted primary antibodies 1:800 for anti-P-450SCC (Research Diagnostics Inc. Flanders, N.J.) and 1:200 for anti-StAR (Amri et al., 1996), and the reaction was detected by a peroxidase-conjugated secondary antibody (Santa Cruz Biotechnology, Santa Cruz, Calif.) and enhanced chemiluminescence (Amersham Life, Arlington Heights, Ill.). The densities of the appropriate bands were determined using the OptiQuant Acquisition & Analysis software (Packard BioScience).

Test [4] deals with HMG-CoA reductase mRNA. The test can be described thus: HMG-CoA reductase mRNA expression by Q-PCR in UT-1 cells. The conditions noted are these: dbcAMP induced. The test is classed as cell-based, Chinese hamster. On the procedure: (§2) After treatment, cells were stimulated with 1 mM dbcAMP for 24 hours. At the end of the incubation, total cell RNA was extracted using. RNA STAT-60 (Tel-Test Inc, Friendswood, Tex.) according to the manufacturer's instructions. HMG-CoA reductase mRNA was quantified by Q-PCR using the ABI Prism 7700 sequence detection system (Perlin-Elmer/Applied Biosystems, Foster City, Calif.). RT reaction was performed using TaqMan® Reverse Transcription Reagents with 1 g total RNA and random hexamers as primers for each reaction according to the manufacturer's instructions. For quantifying mouse HMG-CoA reductase mRNA with Q-PCR, the primers were designed according to GenBank Accession Number BC 019782 using PE/AB Primer Express software, which is specifically designed for the selection of primers and probes. The forward primer was 5′-[…]-3′ (22 nucleotides) and reverse primer was 5′-[…]-3′ (23 nucleotides), respectively. The primers were synthesized by Bio-Synthesis Inc. (Lewisville, Tex.). Reactions were performed in a reaction mixture consisting of a 20 l volume solution containing 10 l SYBR® Green PCR Master Mix and 1 l primers mix (5 M each) with 2 l cDNA.

For test [5], the system named is HMG-CoA reductase mRNA. The test can be described thus: HMG-CoA reductase mRNA expression by Q-PCR in Y1 cells. The test is classed as cell-based, mouse. The conditions noted are these: for dbcAMP-induced HMG-CoA reductase mRNA levels: Y1 cells, 24 hours pretreatment, dbcAMP 24 hours. On the procedure:
as §2

The subject of a further test is PKA. The test can be described thus: dbcAMP-stimulated PKA activity in Y1 cells (PepTag assay). The test is classed as cell-based, mouse. Set-up: dose or concentration left out as unconfirmed. On the procedure:
Y1 cells were cultured in 6-well plates (2×10^5 cells per well) and treated as described above for steroid biosynthesis. At the end of the incubation, cells were washed twice with PBS and proteins were extracted using an extraction buffer (25 mM tris-HCl pH 7.4, 0.5 mM EDTA, 0.5 mM EGTA, 10 mM-mercaptoethanol, 0.5 mM PMSF, 1 g/ml leupeptin, and 1 g/ml aprotinin). After centrifugation at 18,500 g for 15 minutes, the supernatants were kept for PKA activity assay. Samples were processed using the PepTag assay for non-radioactive detection of PKA activity following the manufacturer's recommendations (Promega Corporation, Madison, Wis.).

In test [6] the test system is HMG-CoA reductase mRNA. Put plainly: HMG-CoA reductase mRNA expression by Q-PCR in Hepa1-6 cells. Type of test: cell-based. To be noted: Hepa1-6 mouse liver hepatoma cells. As for the experimental part:
as §2

Test [7] deals with Y1 mouse adrenal tumor cells. The test can be described thus: dbcAMP-induced 20á-hydroxyprogesterone synthesis in Y1 cells (RIA). The test is classed as cell-based. As for the experimental part:
as §1

Structures are written as SMILES. Entries after “also recorded” stand apart in the source; their conditions may differ.

Consider `CCN(CC)CCOC(=O)c1ccc(N)cc1` [procaine], for which, in [1] (H295R cells, 1 mM dbcAMP), the dbcAMP-stimulated cortisol production result is reported as “inhibited the dbcAMP-stimulated cortisol production in a dose-dependent manner”. Also, the basal cortisol production entry in test [1] (H295R cells, no dbcAMP) was “without effecting basal cortisol production”. In [1] (H295R versus Y1), the “sensitivity of human adrenal tumor cells versus mouse adrenal cells” value was “less sensitive”. In addition, the “HMG-CoA reductase activity in treated cells” value in the test with HMG-CoA reductase was “reduced in a dose-dependent manner”. In test [2], the dbcAMP-induced progesterone synthesis entry was “did not affect”. Moreover, the “levels of the mature 30 kDa StAR protein” value is on record as “did not affect” in test [3] and “had no effect” in [3] (listed as Procaine). For the same compound, the “inhibition of HMG-CoA reductase mRNA expression” value in the test with HMG-CoA reductase mRNA [4] is “minor and not significant”. The “dbcAMP-induced HMG-CoA reductase mRNA levels” value in the test on HMG-CoA reductase mRNA [5] is “reduced in a dose-dependent manner”; with HMG-CoA reductase mRNA [5] (listed as Procaine), “inhibited in a dose-dependent manner”; in the test on HMG-CoA reductase mRNA [6], “inhibited; also recorded: robust”. Besides, the “basal HMG-CoA mRNA levels” value in the test on HMG-CoA reductase mRNA [5] (no dbcAMP) is given as “without affecting”. Also, in the test on PKA, the “dbcAMP-stimulated PKA activity” value was “did not affect”. Besides, the “dbcAMP-induced 20á-hydroxyprogesterone production” value in test [7] (Y1 cells, 1 mM dbcAMP, increasing concentrations) is “decreased in a dose-dependent manner”. The “basal steroid formation by Y1 cells” value in test [7] (no dbcAMP stimulus) is reported as “without affecting”.
